The text below walks through data of ChEMBL document CHEMBL5463728, “Data for DCP probe BAY-6096” (2023).

For one data set, the species on record is Homo sapiens. Put plainly: Inhibition of Nicotinic Acetylcholine at compound concentration of 10.0 uM in the Eurofins-Panlabs radioligand binding assay (Eurofins_assay_258590). The class given is protein-complex assay. The following applies: Compound concentration 10.0 uM.
Data set [1] has as its target Prostaglandin G/H synthase 2 (Homo sapiens) (UniProt P35354). As to the kind of experiment: Inhibition of Cyclooxygenase COX-2 at compound concentration of 10.0 uM in the Eurofins-Panlabs enzyme assay (Eurofins_assay_118010). The following applies: Compound concentration 10.0 uM. Details: substrate with concentration 0.3 uM Arachidonic acid, incubation time 15 min, incubation temperature 37 C; call rule not given here.

In data set [2] the target is Phosphodiesterase 3 (Homo sapiens) (UniProt Q14432+Q13370). As to the kind of experiment: Inhibition of Phosphodiesterase PDE3 at compound concentration of 10.0 uM in the Eurofins-Panlabs enzyme assay (Eurofins_assay_152000). The class given is protein assay. The arrangement: substrate with concentration 1.01 uM [3H] cAMP + cAMP, incubation time 20 min, incubation temperature 25 C. Particulars: Compound concentration 10.0 uM.

Data set [3] has as its target Thromboxane-A synthase (Homo sapiens) (UniProt P24557). Put plainly: Inhibition of Thromboxane Synthase at compound concentration of 10.0 uM in the Eurofins-Panlabs enzyme assay (Eurofins_assay_194020). The following applies: Compound concentration 10.0 uM. Details: substrate with concentration.
Data set [4] has as its target Adenosine Transporter (Cavia porcellus) (UniProt H0V4R7+H0UUG1+H0V3Z5). Put plainly: Inhibition of Transporter, Adenosine at compound concentration of 10.0 uM in the Eurofins-Panlabs radioligand binding assay (Eurofins_assay_202000). The class given is protein assay. Details: ligand concentration 0.5 nM, non-specific ligand with concentration 5 uM Nitrobenzylthioinosine, incubation time 30 min, incubation temperature 25 C. Particulars: Compound concentration 10.0 uM.

Data set [5] addresses Monoamine oxidase B (MAO-B) (Homo sapiens, UniProt P27338). Put plainly: Inhibition of Monoamine Oxidase MAO-B at compound concentration of 10.0 uM in the Eurofins-Panlabs enzyme assay (Eurofins_assay_140120). The arrangement: substrate with concentration 50 uM Kynuramine, incubation time 60 min, incubation temperature 37 C. Particulars: recombinant human MAO-B expressed in insect Hi5 cells, probe Kynuramine (50 uM), compound concentration 10 uM.

For data set [6], the target named is 3',5'-cyclic-AMP phosphodiesterase 4D (Homo sapiens) (UniProt Q08499). Put plainly: Inhibition of Phosphodiesterase PDE4D2 at 10 µM in the Eurofins-Panlabs enzyme assay (Eurofins_assay_154420). The arrangement: substrate with concentration. The following applies: Compound concentration 10.0 uM.
Chain of 3',5'-cyclic-AMP phosphodiesterase 4D (Homo sapiens) (Q08499 whole entry): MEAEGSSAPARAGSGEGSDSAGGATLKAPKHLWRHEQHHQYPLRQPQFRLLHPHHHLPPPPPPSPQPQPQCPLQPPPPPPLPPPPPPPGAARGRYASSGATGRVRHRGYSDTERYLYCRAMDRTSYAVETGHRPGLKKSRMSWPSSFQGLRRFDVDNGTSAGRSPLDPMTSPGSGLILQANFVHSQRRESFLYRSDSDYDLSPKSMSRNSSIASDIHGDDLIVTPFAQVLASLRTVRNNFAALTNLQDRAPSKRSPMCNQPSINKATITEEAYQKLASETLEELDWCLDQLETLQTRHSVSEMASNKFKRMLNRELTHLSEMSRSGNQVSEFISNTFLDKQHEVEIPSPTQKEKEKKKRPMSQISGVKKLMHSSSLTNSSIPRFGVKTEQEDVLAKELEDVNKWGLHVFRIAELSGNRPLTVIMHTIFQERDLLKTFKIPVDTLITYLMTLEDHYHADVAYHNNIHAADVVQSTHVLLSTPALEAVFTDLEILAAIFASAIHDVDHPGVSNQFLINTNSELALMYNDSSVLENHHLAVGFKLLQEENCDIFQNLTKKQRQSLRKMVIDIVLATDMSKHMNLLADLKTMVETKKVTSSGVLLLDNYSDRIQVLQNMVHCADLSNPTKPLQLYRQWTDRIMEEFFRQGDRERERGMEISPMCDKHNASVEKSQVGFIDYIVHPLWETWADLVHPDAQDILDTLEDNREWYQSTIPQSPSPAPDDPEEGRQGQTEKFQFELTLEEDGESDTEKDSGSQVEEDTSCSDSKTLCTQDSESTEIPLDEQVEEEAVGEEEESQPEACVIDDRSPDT
Data set [7] has as its target Alpha-1D adrenergic receptor (Homo sapiens, UniProt P25100). As to the kind of experiment: Adrenoceptor reporter cell assay (ADRA1D). The class given is functional.
The target of data set [8] is Beta-1 adrenergic receptor (Homo sapiens, UniProt P08588). Put plainly: Adrenoceptor reporter cell assay (ADRB1). The class given is functional.
Data set [9] addresses Beta-2 adrenergic receptor (Homo sapiens, UniProt P07550). Put plainly: Adrenoceptor reporter cell assay (ADRB2). Format: functional.
For data set [10], the species on record is Rattus norvegicus. Particulars: Compound concentration 10.0 uM.
The target of data set [11] is Adenosine receptor A1 (Homo sapiens) (UniProt P30542). The following applies: Compound concentration 10.0 uM.
Data set [12] deals with Adenosine receptor A2a (Homo sapiens) (UniProt P29274). The following applies: Compound concentration 10.0 uM.
For data set [13], the target named is Adenosine receptor A3 (Homo sapiens) (UniProt P0DMS8). The following applies: Compound concentration 10.0 uM.
For data set [14], the target named is B2 bradykinin receptor (Homo sapiens) (UniProt P30411). The following applies: Compound concentration 10.0 uM.
In data set [15] the target is D(1A) dopamine receptor (Homo sapiens) (UniProt P21728). Particulars: Compound concentration 10.0 uM.
Chain of D(1A) dopamine receptor (Homo sapiens) (P21728 whole entry): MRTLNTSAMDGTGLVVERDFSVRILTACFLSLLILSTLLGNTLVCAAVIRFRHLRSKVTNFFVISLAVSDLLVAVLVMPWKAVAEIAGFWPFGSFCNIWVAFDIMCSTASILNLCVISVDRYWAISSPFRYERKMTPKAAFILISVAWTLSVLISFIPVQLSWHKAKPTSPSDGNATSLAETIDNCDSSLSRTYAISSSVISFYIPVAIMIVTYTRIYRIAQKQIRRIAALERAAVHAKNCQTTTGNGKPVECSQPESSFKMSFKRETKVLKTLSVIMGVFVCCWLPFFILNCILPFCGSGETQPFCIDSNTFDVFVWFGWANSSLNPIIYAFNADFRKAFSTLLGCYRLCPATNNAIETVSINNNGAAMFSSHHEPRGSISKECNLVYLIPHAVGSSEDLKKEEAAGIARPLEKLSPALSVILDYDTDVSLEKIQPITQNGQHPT
The target in another data set is D(2) dopamine receptor (Homo sapiens, UniProt P14416). Particulars: Compound concentration 10.0 uM.
Data set [16] deals with D(3) dopamine receptor (Homo sapiens) (UniProt P35462). Particulars: Compound concentration 10.0 uM.
Data set [17] addresses Endothelin-1 receptor (Homo sapiens) (UniProt P25101). The following applies: Compound concentration 10.0 uM.
The target in data set [18] is Endothelin receptor type B (Homo sapiens) (UniProt P24530). The following applies: Compound concentration 10.0 uM.
Data set [19] concerns the target Estrogen receptor (Homo sapiens) (UniProt P03372). Particulars: Compound concentration 10.0 uM.
The target of data set [20] is Histamine H3 receptor (Homo sapiens) (UniProt Q9Y5N1). Particulars: Compound concentration 10.0 uM.
Chain of Histamine H3 receptor (Homo sapiens) (Q9Y5N1 whole entry): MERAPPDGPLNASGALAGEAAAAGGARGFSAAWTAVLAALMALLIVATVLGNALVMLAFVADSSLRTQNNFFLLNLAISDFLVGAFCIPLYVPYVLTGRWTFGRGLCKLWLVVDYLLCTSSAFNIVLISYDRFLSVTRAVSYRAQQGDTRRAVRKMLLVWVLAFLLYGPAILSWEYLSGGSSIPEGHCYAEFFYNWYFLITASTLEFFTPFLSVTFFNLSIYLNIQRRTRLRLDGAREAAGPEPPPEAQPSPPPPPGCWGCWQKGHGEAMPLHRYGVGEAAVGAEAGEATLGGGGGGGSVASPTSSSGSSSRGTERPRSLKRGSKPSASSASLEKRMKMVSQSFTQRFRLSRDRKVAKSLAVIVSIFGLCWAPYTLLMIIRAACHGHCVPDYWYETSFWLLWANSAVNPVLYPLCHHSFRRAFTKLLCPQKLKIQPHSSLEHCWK
Data set [21] deals with T1, Muscarinic acetylcholine receptor M2 (Homo sapiens) (UniProt P08172).
T1 sequence (whole entry): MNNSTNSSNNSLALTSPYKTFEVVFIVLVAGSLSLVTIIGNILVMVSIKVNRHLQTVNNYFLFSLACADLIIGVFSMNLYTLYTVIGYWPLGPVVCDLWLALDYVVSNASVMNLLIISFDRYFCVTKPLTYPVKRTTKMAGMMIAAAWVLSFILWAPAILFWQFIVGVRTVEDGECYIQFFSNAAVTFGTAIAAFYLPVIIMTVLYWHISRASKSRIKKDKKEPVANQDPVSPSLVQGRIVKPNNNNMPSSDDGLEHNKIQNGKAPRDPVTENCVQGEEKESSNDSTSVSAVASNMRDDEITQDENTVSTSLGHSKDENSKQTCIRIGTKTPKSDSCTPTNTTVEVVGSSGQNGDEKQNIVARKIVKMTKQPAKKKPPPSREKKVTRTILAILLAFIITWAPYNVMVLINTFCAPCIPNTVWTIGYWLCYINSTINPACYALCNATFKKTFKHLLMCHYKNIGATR
The following applies: Compound concentration 10.0 uM.

Data set [22] concerns the target Muscarinic acetylcholine receptor M3 (Homo sapiens) (UniProt P20309). Particulars: Compound concentration 10.0 uM.
For data set [23], the target named is Delta-type opioid receptor (Homo sapiens) (UniProt P41143). Particulars: Compound concentration 10.0 uM.
Data set [24] has as its target Mu-type opioid receptor (Homo sapiens) (UniProt P35372). The following applies: Compound concentration 10.0 uM.
In data set [25] the target is 5-hydroxytryptamine receptor 2B (Homo sapiens) (UniProt P41595). The following applies: Compound concentration 10.0 uM.
Chain of 5-hydroxytryptamine receptor 2B (Homo sapiens) (P41595 whole entry): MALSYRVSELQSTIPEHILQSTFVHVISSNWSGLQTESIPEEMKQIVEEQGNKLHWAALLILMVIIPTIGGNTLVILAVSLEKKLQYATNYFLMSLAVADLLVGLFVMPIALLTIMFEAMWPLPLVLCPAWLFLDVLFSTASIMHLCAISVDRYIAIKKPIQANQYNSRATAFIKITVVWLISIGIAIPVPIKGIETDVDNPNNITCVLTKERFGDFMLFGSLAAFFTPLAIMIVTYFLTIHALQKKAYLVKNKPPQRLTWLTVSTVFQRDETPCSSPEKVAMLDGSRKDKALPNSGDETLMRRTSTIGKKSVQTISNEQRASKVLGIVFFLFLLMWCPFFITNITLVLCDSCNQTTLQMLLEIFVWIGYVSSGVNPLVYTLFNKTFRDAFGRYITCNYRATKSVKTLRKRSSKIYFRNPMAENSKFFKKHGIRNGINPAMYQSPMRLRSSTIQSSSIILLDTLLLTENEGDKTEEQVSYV
The species named for data set [26] is Rattus norvegicus. The following applies: Compound concentration 10.0 uM. This is another data set of the same source.
The target of data set [27] is Sodium-dependent serotonin transporter (Homo sapiens) (UniProt P31645). The following applies: Compound concentration 10.0 uM.
In data set [28] the target is Glucocorticoid receptor (Homo sapiens) (UniProt P04150). Particulars: Compound concentration 10.0 uM.
Chain of Glucocorticoid receptor (Homo sapiens) (P04150 whole entry): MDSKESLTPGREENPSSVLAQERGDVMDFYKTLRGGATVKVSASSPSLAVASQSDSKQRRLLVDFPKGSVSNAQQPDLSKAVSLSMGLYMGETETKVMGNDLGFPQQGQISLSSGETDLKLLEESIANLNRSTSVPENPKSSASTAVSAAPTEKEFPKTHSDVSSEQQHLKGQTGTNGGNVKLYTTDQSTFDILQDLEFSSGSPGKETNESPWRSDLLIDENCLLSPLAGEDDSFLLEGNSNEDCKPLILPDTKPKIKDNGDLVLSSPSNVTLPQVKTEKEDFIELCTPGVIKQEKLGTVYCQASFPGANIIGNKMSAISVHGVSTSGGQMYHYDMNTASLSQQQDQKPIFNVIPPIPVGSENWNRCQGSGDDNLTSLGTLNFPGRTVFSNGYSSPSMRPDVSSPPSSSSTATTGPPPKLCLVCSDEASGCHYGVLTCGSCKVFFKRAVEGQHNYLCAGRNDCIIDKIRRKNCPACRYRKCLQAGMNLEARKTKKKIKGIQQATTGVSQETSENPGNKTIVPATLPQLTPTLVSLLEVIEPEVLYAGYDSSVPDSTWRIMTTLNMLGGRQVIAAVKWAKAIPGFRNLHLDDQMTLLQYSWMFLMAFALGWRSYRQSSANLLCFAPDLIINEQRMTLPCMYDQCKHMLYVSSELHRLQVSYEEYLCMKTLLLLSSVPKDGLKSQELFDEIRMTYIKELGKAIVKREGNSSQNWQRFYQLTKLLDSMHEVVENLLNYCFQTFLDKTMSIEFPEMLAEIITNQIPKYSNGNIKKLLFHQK
Data set [29] concerns the target Acetylcholinesterase (Homo sapiens) (UniProt P22303). Particulars: Compound concentration 10.0 uM.
Data set [30] has as its target Glutamate receptor 2 (Homo sapiens) (UniProt P42262). Particulars: Rattus norvegicus; Compound concentration 10.0 uM.
In data set [31] the target is Androgen receptor (Homo sapiens) (UniProt P10275). Particulars: Compound concentration 10.0 uM.
Data set [32] concerns the target B1 bradykinin receptor (Homo sapiens) (UniProt P46663). The following applies: Compound concentration 10.0 uM.
The target of data set [33] is Growth hormone secretagogue receptor type 1 (Homo sapiens) (UniProt Q92847). Particulars: Compound concentration 10.0 uM.
For data set [34], the target named is D(1B) dopamine receptor (Homo sapiens) (UniProt P21918). Particulars: Compound concentration 10.0 uM.
Chain of D(1B) dopamine receptor (Homo sapiens) (P21918 whole entry): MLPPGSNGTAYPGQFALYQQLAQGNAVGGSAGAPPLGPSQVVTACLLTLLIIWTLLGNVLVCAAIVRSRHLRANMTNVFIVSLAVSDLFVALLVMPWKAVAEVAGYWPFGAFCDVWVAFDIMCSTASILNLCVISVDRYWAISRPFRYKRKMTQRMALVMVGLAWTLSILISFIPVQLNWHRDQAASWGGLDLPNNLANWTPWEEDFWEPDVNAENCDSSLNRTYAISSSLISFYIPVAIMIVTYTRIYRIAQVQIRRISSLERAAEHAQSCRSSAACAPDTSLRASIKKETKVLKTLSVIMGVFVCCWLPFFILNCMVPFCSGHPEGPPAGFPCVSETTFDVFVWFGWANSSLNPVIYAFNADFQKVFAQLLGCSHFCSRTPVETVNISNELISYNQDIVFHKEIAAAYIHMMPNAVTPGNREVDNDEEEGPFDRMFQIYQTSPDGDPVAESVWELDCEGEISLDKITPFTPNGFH
Data set [35] has as its target Alpha-2B adrenergic receptor (Homo sapiens) (UniProt P18089). Particulars: filed as antagonist, Compound concentration 10.0 uM.

One may read the inhibition as the relative decrease from the control value, in per cent. In general, IC50 refers to the concentration at which inhibition is half-maximal. The low end stands for greater potency in that assay, the high end for weaker potency in that assay.

Chain of Alpha-2B adrenergic receptor (Homo sapiens) (P18089 whole entry): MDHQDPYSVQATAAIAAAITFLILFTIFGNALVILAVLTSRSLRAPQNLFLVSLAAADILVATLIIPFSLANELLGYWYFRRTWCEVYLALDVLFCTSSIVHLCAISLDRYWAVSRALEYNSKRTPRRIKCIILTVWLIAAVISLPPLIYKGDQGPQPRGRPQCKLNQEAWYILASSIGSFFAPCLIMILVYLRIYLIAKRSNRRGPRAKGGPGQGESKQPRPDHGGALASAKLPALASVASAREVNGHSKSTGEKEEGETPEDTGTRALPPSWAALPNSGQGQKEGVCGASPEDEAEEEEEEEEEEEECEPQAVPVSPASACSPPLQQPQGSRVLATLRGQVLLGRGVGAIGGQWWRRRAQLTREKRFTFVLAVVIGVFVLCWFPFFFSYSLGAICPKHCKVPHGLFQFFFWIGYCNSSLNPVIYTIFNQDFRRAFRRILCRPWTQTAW
Chain of Estrogen receptor (Homo sapiens) (P03372 whole entry): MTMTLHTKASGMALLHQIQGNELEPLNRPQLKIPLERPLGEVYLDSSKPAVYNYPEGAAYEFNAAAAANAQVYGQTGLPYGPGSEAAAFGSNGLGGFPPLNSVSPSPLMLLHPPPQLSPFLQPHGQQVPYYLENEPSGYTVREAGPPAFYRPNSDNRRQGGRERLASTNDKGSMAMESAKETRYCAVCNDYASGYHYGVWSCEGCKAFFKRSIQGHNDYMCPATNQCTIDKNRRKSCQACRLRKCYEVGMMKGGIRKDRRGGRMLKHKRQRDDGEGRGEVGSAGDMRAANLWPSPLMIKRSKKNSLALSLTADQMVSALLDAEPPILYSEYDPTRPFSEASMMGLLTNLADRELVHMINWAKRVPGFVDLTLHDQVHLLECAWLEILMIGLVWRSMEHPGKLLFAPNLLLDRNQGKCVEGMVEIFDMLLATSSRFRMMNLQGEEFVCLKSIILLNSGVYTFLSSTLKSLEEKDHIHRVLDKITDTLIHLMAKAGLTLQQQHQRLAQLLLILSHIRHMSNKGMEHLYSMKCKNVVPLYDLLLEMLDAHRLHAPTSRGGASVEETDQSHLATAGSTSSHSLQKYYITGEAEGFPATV
Chain of Thromboxane-A synthase (Homo sapiens) (P24557 whole entry): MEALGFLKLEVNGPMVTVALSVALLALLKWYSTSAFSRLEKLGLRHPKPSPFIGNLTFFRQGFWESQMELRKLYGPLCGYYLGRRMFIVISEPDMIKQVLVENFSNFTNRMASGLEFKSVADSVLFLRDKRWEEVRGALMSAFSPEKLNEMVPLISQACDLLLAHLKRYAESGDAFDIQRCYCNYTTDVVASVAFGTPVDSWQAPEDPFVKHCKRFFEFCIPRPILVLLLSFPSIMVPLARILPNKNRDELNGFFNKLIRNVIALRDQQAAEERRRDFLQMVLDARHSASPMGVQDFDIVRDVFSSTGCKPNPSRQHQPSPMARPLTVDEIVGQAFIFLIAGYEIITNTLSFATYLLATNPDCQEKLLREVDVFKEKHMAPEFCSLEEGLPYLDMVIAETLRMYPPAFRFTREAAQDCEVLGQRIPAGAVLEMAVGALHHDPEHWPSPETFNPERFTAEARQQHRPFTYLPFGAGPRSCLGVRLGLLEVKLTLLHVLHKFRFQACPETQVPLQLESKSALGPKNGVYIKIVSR

Take `CNc1cc[n+](CCNC(=O)c2ccn3c(-c4c(C)noc4C)cnc3c2)cc1`: the inhibition in the data set listed under Homo sapiens was 9.4%; in data set [1], -8.7%; in [2], 3.4%; in [3], -8.2%; in [4], -2.2%; in [6], -0.5%. Besides, the inhibition in the data set filed under Rattus norvegicus [10] was 4.24%; in data set [11], 1.2%; in [12] it was -8.3%; in data set [13], 1.1%; in [14] it was -1.8%; in [15], -6.7%. For the same compound, the inhibition is -5.2% on D(2) dopamine receptor; -4.7% in data set [16]; -2.2% in data set [17]; -2.3% in data set [18]; 6.2% in data set [19]; 1.6% in [20]. Besides, the inhibition in data set [21] was 6.4%; in [22], -0.2%; in data set [23] it was -5.3%; in data set [24], 0.1%; in data set [25] it was 0%; in the data set filed under Rattus norvegicus [26] it was 0.4%. Also, the inhibition in data set [27] is 0.4%; in data set [28], 1.3%; in data set [29], 14.8%; in data set [30], -1.1%; in data set [31], -2.7%; in [32], -0.9%. The inhibition in data set [33] was 2.3%. For the same compound, the inhibition at 60 min, 10 µM in [5] was 6% (not active). Also, the 50% inhibitory concentration (IC50) in [7], in data set [8] and in data set [9] was > 10 µM (not active) each time.
Regarding `Cc1noc(C)c1-c1cnc2cc(C(=O)NCCC[n+]3ccc(N(C)C)cc3)ccn12`, the inhibition in [34] is 0.03%; in data set [35], 54.6%.
